# Where a name gives a salt, the structure may show the parent alone.
# Assay: Solubility in lipophilic vehicles
# Format: physicochemical
# Conditions: lipophilic vehicles like liquid or light liquid paraffin
smiles,measurement,value
"Cc1ccc(Nc2nccc(N(C)c3ccc4c(C)n(C)nc4c3)n2)cc1S(N)(=O)=O [pazopanib hydrochloride, 5-[[4-[(2,3-Dimethyl-2H-indazol-6-yl)methylamino]-2-pyrimidinyl]amino]-2-methylbenzolsulfonamide]",solubility in lipophilic vehicles,very low
